pEC50: −log10 of the molar value.
What was measured:
Assay in all cases: HEK293 SEAP reporter assay, other TLRs (Biological Example 3)
Type in all cases: cell-based
Conditions in all cases: 16 hrs, up to 1 μM
human TLR2 = biological target: T1, human TLR2 (Homo sapiens, UniProt O60603)
T1 construct: host or cells: HEK293
Description: (§1) In this example, the activity of the Compound 1 to stimulate different human and mouse TLR pathways was investigated on HEK293 cells transfected with inducible SEAP (secreted embryonic alkaline phosphatase) reporter genes and also expressing different human TLRs (TLR2, TLR3, TLR4, TLR5, TLR7, TLR8, TLRS) or mouse TLRs (TLR2, TLR3, TLR4, TLR5, TLR7, TLR8, TLR13). Compound A
(§2) HEK293 reporter cell lines were purchased from Invivogen and cell lines were maintained in manufacture recommended culture medium with required supplemental antibiotics. On the day of assay, the cells were harvested with Accutase and counted by the Vi-CELL Cell Viability Analyzers. Cells were re-suspended in HEK blue detection medium and a total of 10000 cells were seeded in each well of a 384-well flat bottom plate. […] Assay plates were cultured at 37° C. in a CO2 incubator for 16 hrs. HEK-Blue™ Detection medium changes to a purple/blue color in the presence of secreted SEAP, which can be detected by spectrophotometry at 620-655 nm. Data was fitted with non-linear regression analysis, using a log(inhibitor) vs. response-variable slope, 3-parameter fit with GraphPad Prism.

human TLR5 = biological target: T2, human TLR5 (Homo sapiens, UniProt O60602)
T2 construct: host or cells: HEK293
Description: as §1, §2

human TLR9 = biological target: T3, human TLR9 (Homo sapiens, UniProt Q9NR96)
T3 construct: host or cells: HEK293
T3 sequence (Q9NR96 26-1032): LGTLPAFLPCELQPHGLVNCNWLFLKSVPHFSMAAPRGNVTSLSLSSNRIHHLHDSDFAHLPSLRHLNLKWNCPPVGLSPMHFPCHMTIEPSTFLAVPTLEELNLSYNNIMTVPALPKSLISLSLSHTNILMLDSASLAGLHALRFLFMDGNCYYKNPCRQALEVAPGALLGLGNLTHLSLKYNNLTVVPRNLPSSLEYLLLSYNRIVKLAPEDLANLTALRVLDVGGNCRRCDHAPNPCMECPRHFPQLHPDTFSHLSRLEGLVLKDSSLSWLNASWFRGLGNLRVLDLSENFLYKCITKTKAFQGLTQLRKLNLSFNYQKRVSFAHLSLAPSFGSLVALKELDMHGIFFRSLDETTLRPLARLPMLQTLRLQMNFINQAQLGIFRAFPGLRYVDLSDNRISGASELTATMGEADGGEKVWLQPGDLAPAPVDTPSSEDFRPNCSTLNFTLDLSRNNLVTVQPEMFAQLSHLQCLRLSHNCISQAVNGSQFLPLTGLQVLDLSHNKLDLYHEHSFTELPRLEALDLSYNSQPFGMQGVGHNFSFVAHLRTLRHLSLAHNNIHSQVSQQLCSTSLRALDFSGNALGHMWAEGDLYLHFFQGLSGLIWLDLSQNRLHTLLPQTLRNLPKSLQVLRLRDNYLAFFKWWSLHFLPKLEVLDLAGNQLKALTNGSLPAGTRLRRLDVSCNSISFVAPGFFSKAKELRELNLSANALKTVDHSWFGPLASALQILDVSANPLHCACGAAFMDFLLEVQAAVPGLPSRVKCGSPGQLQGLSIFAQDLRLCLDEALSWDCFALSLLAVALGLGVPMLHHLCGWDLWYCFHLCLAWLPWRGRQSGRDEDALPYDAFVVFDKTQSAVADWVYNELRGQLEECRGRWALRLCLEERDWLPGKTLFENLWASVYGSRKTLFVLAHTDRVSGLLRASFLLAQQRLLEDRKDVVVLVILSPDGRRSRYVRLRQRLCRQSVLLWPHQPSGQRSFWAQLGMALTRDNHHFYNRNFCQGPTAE
Description: as §1, §2

mouse TLR8 = biological target: T4, mouse TLR8 (Mus musculus, UniProt P58682)
T4 construct: host or cells: HEK293
T4 sequence (P58682 24-1032): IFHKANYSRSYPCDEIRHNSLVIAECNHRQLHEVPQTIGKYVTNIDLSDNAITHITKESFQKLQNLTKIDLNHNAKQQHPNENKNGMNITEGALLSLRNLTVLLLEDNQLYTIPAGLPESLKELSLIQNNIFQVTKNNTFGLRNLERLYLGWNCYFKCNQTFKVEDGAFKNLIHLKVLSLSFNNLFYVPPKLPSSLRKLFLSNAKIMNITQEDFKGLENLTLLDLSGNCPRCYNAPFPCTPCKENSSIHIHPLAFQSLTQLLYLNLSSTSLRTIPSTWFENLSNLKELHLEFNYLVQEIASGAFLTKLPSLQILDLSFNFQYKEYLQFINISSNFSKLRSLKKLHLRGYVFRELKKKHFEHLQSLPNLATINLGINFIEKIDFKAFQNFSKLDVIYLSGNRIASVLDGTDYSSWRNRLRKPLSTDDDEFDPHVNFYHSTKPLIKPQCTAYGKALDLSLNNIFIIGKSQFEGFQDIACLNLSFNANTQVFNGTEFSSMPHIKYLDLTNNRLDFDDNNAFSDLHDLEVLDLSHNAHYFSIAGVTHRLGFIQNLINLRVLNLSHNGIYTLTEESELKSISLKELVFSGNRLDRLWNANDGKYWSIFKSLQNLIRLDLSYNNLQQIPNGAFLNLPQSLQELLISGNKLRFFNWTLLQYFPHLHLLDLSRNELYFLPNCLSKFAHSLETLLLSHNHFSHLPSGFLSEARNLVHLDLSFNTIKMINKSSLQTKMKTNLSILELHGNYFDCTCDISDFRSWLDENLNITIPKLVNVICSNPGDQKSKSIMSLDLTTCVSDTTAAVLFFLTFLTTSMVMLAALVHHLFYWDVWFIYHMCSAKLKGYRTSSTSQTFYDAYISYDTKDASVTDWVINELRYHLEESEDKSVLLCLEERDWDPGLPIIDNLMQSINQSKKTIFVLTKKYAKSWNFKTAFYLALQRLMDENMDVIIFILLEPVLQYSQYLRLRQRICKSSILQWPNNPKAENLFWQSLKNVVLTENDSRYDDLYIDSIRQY
Description: as §1, §2

T2 sequence (O60602 21-858): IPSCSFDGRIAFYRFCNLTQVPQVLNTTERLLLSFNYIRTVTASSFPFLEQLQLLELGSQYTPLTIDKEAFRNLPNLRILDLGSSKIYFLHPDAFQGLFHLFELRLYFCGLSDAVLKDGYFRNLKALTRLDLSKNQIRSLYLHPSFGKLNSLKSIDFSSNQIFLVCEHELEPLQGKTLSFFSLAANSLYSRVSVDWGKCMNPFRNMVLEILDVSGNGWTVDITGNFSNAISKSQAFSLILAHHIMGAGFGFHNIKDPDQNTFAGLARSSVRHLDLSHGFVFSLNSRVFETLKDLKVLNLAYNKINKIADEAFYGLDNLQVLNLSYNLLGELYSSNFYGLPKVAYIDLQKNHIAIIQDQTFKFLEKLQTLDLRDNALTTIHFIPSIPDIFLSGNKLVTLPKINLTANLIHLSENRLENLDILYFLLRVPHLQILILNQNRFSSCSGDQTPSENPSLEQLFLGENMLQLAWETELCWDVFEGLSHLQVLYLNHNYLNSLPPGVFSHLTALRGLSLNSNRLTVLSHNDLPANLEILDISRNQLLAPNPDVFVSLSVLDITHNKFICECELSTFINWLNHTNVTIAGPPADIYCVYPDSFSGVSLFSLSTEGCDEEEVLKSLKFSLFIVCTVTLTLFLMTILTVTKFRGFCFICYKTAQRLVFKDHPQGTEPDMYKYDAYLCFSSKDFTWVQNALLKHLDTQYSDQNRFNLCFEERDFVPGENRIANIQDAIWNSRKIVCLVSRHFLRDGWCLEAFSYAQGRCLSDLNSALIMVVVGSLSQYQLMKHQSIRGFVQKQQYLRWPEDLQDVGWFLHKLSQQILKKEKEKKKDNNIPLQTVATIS
T1 sequence (O60603 21-784): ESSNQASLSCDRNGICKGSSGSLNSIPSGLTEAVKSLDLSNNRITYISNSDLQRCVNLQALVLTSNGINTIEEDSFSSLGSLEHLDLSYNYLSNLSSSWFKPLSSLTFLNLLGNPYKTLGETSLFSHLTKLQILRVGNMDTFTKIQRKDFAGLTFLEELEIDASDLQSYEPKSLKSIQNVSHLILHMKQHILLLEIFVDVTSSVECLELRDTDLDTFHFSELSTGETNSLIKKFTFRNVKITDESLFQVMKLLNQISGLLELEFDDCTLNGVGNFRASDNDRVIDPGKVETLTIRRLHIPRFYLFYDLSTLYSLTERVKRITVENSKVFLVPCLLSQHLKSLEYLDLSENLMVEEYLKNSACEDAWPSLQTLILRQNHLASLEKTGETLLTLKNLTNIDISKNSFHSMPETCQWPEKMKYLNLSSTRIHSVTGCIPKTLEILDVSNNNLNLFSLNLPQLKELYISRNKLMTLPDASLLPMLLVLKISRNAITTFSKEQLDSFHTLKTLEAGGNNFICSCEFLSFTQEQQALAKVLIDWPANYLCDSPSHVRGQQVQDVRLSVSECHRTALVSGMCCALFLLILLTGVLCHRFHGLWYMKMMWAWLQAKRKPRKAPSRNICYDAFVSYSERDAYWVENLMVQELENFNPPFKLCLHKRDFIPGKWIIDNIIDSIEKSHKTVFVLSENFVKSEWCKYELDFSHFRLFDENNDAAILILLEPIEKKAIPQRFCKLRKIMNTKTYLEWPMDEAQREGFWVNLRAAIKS

Row | pEC50 (human TLR2) | pEC50 (human TLR5) | pEC50 (human TLR9) | pEC50 (mouse TLR8) | SMILES
1 | < 6.00 | < 6.00 | < 6.00 | < 6.00 | CCCCn1nc2c(N)nc3ccccc3c2c1Cc1ccc(CN)cc1 [Compound 1, 1-(4-(aminomethyl)benzyl)-2-butyl-2H-pyrazolo[3,4-c]quinolin-4-amine]
2 | < 6.00 | < 6.00 | < 6.00 | < 6.00 | CCCCc1nc2c(N)nc3ccccc3c2n1Cc1ccc(CN)cc1 [Compound A, reference compound]

Source: patent publication US20220259202A1, “1-(4-(AMINOMETHYL)BENZYL)-2-BUTYL-2H-PYRAZOLO[3,4-C]QUINOLIN-4-AMINE DERIVATIVES AND RELATED COMPOUNDS AS TOLL-LIKE RECEPTOR (TLR) 7/8 AGONISTS, AS WELL AS ANTIBODY DRUG CONJUGATES THEREOF FOR USE IN CANCER THERAPY AND DIAGNOSIS” (SUTRO BIOPHARMA, INC., priority 2019, published 2022)
